Common to all, as to type: biochemical
For one assay, the target named is PKB (Homo sapiens, UniProt P31749). The experiment in a line: Inhibition of PKB.
In another assay the target is Tie2 (Homo sapiens, UniProt Q02763). The experiment in a line: Inhibition of Tie2.
The test system of a further assay is RAF. The assay can be described thus: Inhibition of RAF.

PKB, sequence (P31749 whole entry, species assumed): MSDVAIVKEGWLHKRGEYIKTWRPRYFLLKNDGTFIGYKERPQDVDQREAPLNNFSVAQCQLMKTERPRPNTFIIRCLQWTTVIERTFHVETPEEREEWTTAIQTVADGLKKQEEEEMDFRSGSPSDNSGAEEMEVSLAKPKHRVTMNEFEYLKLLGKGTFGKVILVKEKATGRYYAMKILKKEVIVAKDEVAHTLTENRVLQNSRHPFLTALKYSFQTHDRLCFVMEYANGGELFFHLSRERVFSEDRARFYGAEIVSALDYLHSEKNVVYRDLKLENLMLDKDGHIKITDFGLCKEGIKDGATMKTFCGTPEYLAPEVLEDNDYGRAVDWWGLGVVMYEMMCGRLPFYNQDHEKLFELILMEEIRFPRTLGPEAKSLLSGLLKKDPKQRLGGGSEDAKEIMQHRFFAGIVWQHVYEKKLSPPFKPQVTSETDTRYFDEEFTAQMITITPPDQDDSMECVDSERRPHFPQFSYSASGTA
Tie2, sequence (Q02763 23-1124, species assumed): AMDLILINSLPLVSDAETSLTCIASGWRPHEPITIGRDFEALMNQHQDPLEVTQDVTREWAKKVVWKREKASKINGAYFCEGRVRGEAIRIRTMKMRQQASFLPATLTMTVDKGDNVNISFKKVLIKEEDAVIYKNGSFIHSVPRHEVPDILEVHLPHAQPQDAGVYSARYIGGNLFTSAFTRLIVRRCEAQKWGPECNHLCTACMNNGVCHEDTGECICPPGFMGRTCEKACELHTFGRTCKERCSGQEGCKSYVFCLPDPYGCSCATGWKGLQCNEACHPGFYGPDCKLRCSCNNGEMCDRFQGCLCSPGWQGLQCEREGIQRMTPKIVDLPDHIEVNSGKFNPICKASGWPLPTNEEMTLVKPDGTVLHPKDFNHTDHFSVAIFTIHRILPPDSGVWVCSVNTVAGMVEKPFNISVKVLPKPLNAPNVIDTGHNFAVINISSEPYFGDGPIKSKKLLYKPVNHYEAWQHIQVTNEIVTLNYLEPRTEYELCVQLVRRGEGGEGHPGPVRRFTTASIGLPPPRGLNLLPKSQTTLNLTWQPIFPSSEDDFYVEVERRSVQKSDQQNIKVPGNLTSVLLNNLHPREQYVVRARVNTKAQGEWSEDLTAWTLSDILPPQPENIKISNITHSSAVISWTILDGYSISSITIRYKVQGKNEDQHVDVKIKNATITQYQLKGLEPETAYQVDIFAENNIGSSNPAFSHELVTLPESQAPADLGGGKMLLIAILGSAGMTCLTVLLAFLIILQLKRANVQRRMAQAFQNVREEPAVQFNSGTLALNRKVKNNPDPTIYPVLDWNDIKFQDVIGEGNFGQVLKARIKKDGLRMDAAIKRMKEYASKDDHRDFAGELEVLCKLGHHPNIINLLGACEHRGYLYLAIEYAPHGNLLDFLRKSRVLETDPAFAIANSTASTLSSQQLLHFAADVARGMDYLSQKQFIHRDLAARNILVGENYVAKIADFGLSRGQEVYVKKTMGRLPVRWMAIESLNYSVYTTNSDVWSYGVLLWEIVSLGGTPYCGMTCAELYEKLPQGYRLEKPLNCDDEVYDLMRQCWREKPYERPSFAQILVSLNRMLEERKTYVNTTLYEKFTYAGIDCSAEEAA

`O=C(c1cc(=O)c2cc(O)ccc2o1)c1ncc(Cl)nc1Cl`: the IC50 is 9.4 µM on PKB, above 10 µM on Tie2 and above 1 µM with RAF.

`Cn1ccnc1C(=O)c1cc(=O)c2c(O)cc(O)cc2o1`: the 50% inhibitory concentration (IC50) against PKB was above 10 µM; at Tie2, above 10 µM; in the assay with RAF, above 1 µM.

As for `Cn1ccnc1C(=O)c1cc(=O)c2cc(O)ccc2o1`, the IC50 against PKB is above 10 µM; at Tie2 it was above 10 µM; in the assay with RAF, above 1 µM.

As to `O=C(c1ccccn1)c1cc(=O)c2c(O)cc(O)cc2o1`, the figures for the IC50 at PKB, on Tie2 and with RAF were above 10 µM, above 10 µM and above 1 µM, respectively.

For `O=C(c1ccccn1)c1cc(=O)c2cc(O)ccc2o1`, the results for the IC50 at PKB, against Tie2 and in the assay with RAF were above 10 µM, above 10 µM and above 1 µM, respectively.

On to `O=C(c1cc(=O)c2cc(O)ccc2o1)c1nc2ccccc2s1`, for which the IC50 was above 10 µM against PKB, above 10 µM at Tie2 and above 1 µM in the assay on RAF.

The values are drawn from patent US8304416B2, “Chromenone derivatives” (Merck Patent GmbH, priority 2003, dated 2012).
